Test results from patent US20220235064A1 (WELLMARKER BIO CO., LTD., priority 2019, published 2022).

Legend:
[1] = test system: cancer cell line KM12C, in which RON is activated; experiment: Cell growth inhibitory ability in RON-activated cancer cell line (MTS); assay type: cell-based; settings: Homo sapiens, 48 hours, absorbance 490 nm
Experimental: Experimental Example 2: Identification of Cell Growth Inhibitory Ability of Example Compounds in RON-Activated Cancer Cell Line
The cancer cell line KM12C (80015, KCLB, MEM+1K° FBS), in which RON is activated, was treated with each of the example compounds at a concentration of 10 μM, and then reaction was allowed to proceed for 48 hours. 24 hours after completion of the reaction, 20 μl of MTS solution (CellTiter 96 Aqueous One Solution Cell Proliferation Assay, product number: G3581, Promega) was added to each well, and then incubation was performed at a temperature of 37° C. in 50 CO2 incubator for 4 hours. Then, an IC50 value of the compound was derived by measuring its absorbance value at a wavelength of 490 nm using a Victor X5 plate reader. Here, as a positive control, N-(4-(2-amino-3-chloropyridin-4-yloxy)-3-fluorophenyl)-4-ethoxy-1-(4-fluorophenyl)-2-oxo-1,2-dihydropyridine-3-carboxamide, which is the compound of Example 1 in WO 2008/058229 A1, was used.

[2] = test system: cancer cell line KM12C, in which RON is activated; experiment: Cell-killing efficacy in RON-activated cancer cell line (trypan blue); assay type: cell-based; settings: Homo sapiens, 48 hours, trypan blue, n=2, read-out: Cell death (%) Cancer cell line KM12C
Experimental: Experimental Example 3: Measurement of Cell-Killing Efficacy of Example Compounds in RON-Activated Cancer Cell Line
The cancer cell line KM12C (80015, KCLB, MEM+10% FBS), in which RON is activated, was dispensed into each 60 mm^2 dish at 1×10^5 cells. After 24 hours, the dish was treated with each of the example compounds at a concentration of 1 μM or 5 μM while performing medium exchange, and then reaction was allowed to proceed for 48 hours. After 48 hours, centrifugation was performed for 4 minutes at 1,500 rpm to collect cells and cell fluid. Thereafter, living cells and dead cells were quantified (n=2) using a trypan blue solution (15250-061, Gibco), and statistical analysis was performed using Excel-T-test. Here, as a negative control, only a solvent (0.100 DMSO) was used; and as a positive control, N-(4-(2-amino-3-chloropyridin-4-yloxy)-3-fluorophenyl)-4-ethoxy-1-(4-fluorophenyl)-2-oxo-1,2-dihydropyridine-3-carboxamide, which is the compound of Example 1 in WO 2008/058229 A1, was used.

| Structure (SMILES) | IC50 [1] | cytotoxicity at 1 µM [2] | cytotoxicity at 5 µM [2] |
| --- | --- | --- | --- |
| O=C(Nc1ccc(Oc2ccnc3cc(-c4ccc(CN5CCC(F)CC5)cn4)sc23)c(F)c1)c1c2c(cn(-c3ccc(F)cc3)c1=O)CCO2 [Example 34, N-(3-Fluoro-4-((2-(5-((4-fluoropiperidin-1-yl)methyl)pyridin-2-yl)thieno[3,2-b]pyridin-7-yl)oxy)phenyl)-5-(4-fluorophenyl)-6-oxo-2,3,5,6-tetrahydrofuro[3,2-c]pyridine-7-carboxamide] | 3 nM | 13.7% | 15.9% |
| O=C(Nc1ccc(Oc2ccnc3cc(-c4ccc(CN5CCC(F)(F)CC5)cn4)sc23)c(F)c1)c1c2c(cn(-c3ccc(F)cc3)c1=O)CCO2 [Example 35, N-(4-((2-(5-((4,4-Difluoropiperidin-1-yl)methyl)pyridin-2-yl)thieno[3,2-b]pyridine-7-yl)oxy)-3-fluorophenyl)-5-(4-fluorophenyl)-6-oxo-2,3,5,6-tetrahydrofuro[3,2-c]pyridine-7-carboxamide] | 4 nM | 19.6% | 28.1% |
| CC1CCN(Cc2ccc(-c3cc4nccc(Oc5ccc(NC(=O)c6c7c(cn(-c8ccc(F)cc8)c6=O)CCO7)cc5F)c4s3)nc2)CC1 [Example 36, N-(3-Fluoro-4-((2-(5-((4-methylpiperidin-1-yl)methyl)pyridin-2-yl)thieno[3,2-b]pyridin-7-yl)oxy)phenyl)-5-(4-fluorophenyl)-6-oxo-2,3,5,6-tetrahydrofuro[3,2-c]pyridine-7-carboxamide] | 5 nM | 17.1% | 30% |
| COc1cc2c(Oc3ccc(NC(=O)c4c5c(cn(-c6ccc(F)cc6)c4=O)CCO5)cc3F)ccnc2cc1OCCCN1CCC(C)(O)C1 (stereo not drawn) [Example 91, N-(3-Fluoro-4-((7-(3-(3-hydroxy-3-methylpyrrolidin-1-yl)propoxy)-6-methoxyquinoline-4-yl)oxy)phenyl)-5-(4-fluorophenyl)-6-oxo-2,3,5,6-tetrahydrofuro[3,2-c]pyridine-7-carboxamide] | 50 nM | 12.7% | 14.3% |
| COc1cc2c(Oc3ccc(NC(=O)c4c5c(cn(-c6ccc(F)cc6)c4=O)CCO5)cc3F)ccnc2cc1OCCCN1CCC(F)(F)C1 [Example 95, N-(4-((7-(3-(3,3-Difluoropyrrolidin-1-yl)propoxy)-6-methoxyquinolin-4-yl)oxy)-3-fluorophenyl)-5-(4-fluorophenyl)-6-oxo-2,3,5,6-tetrahydrofuro[3,2-c]pyridine-7-carboxamide] | 5 nM | 19.6% | 25.6% |
| COc1cc2c(Oc3ccc(NC(=O)c4c5c(cn(-c6ccc(F)cc6)c4=O)CCO5)cc3F)ccnc2cc1OCCN1CCC(C)(O)CC1 [Example 137, N-(3-Fluoro-4-((7-(2-(4-hydroxy-4-methylpiperidin-1-yl)ethoxy)-6-methoxyquinoline-4-yl)oxy)phenyl)-5-(4-fluorophenyl)-6-oxo-2,3,5,6-tetrahydrofuro[3,2-c]pyridine-7-carboxamide] | 2 nM | 18.2% | 22.4% |

The next lines start with results.

| IC50 [1] | Structure (SMILES) | cytotoxicity at 1 µM [2] | cytotoxicity at 5 µM [2] |
| --- | --- | --- | --- |
| 2 nM | O=C(Nc1ccc(Oc2ccnc3cc(-c4ccc(CN5CCC(F)C5)cn4)sc23)c(F)c1)c1c2c(cn(-c3ccc(F)cc3)c1=O)CCO2 (stereo not drawn) [Example 27, N-(3-Fluoro-4-((2-(5-((3-fluoropyrrolidin-1-yl)methyl)pyridin-2-yl)thieno[3,2-b]pyridin-7-yl)oxy)phenyl)-5-(4-fluorophenyl)-6-oxo-2,3,5,6-tetrahydrofuro[3,2-c]pyridine-7-carboxamide] | 17.3% | 29% |
| 3 nM | O=C(Nc1ccc(Oc2ccnc3cc(-c4ccc(CN5CCC(F)(F)C5)cn4)sc23)c(F)c1)c1c2c(cn(-c3ccc(F)cc3)c1=O)CCO2 [Example 28, N-(4-((2-(5-((3,3-Difluoropyrrolidin-1-yl)methyl)pyridin-2-yl)thieno[3,2-b]pyridine-7-yl)oxy)-3-fluorophenyl)-5-(4-fluorophenyl)-6-oxo-2,3,5,6-tetrahydrofuro[3,2-c]pyridine-7-carboxamide] | 9.6% | 10.3% |
| 1 nM | O=C(Nc1ccc(Oc2ccnc3cc(-c4ccc(CN5CCC(O)CC5)cn4)sc23)c(F)c1)c1c2c(cn(-c3ccc(F)cc3)c1=O)CCO2 [Example 29, N-(3-Fluoro-4-((2-(5-((4-hydroxypiperidin-1-yl)methyl)pyridin-2-yl)thieno[3,2-b]pyridin-7-yl)oxy)phenyl)-5-(4-fluorophenyl)-6-oxo-2,3,5,6-tetrahydrofuro[3,2-c]pyridine-7-carboxamide] | 22.6% | 24.5% |
| 1 nM | O=C(Nc1ccc(Oc2ccnc3cc(-c4ccc(CN5CCCC(O)C5)cn4)sc23)c(F)c1)c1c2c(cn(-c3ccc(F)cc3)c1=O)CCO2 (stereo not drawn) [Example 30, N-(3-Fluoro-4-((2-(5-((3-hydroxypiperidin-1-yl)methyl)pyridin-2-yl)thieno[3,2-b]pyridin-7-yl)oxy)phenyl)-5-(4-fluorophenyl)-6-oxo-2,3,5,6-tetrahydrofuro[3,2-c]pyridine-7-carboxamide] | 24.8% | 25.9% |
| 6 nM | COC1CCCN(Cc2ccc(-c3cc4nccc(Oc5ccc(NC(=O)c6c7c(cn(-c8ccc(F)cc8)c6=O)CCO7)cc5F)c4s3)nc2)C1 (stereo not drawn) [Example 32, N-(3-Fluoro-4-((2-(5-((3-methoxypiperidin-1-yl)methyl)pyridin-2-yl)thieno[3,2-b]pyridin-7-yl)oxy)phenyl)-5-(4-fluorophenyl)-6-oxo-2,3,5,6-tetrahydrofuro[3,2-c]pyridine-7-carboxamide] | 13.5% | 20.4% |
| 3 nM | COc1cc2c(Oc3ccc(NC(=O)c4c5c(cn(-c6ccc(F)cc6)c4=O)CCO5)cc3F)ccnc2cc1OCCCN1CC(C#N)C1 [Example 88, N-(4-((7-(3-(3-Cyanoazetidin-1-yl)propoxy)-6-methoxyquinolin-4-yl)oxy)-3-fluorophenyl)-5-(4-fluorophenyl)-6-oxo-2,3,5,6-tetrahydrofuro[3,2-c]pyridine-7-carboxamide] | 18.8% | 24.7% |
| 1 nM | COc1cc2c(Oc3ccc(NC(=O)c4c5c(cn(-c6ccc(F)cc6)c4=O)CCO5)cc3F)ccnc2cc1OCCCN1CCS(=O)(=O)CC1 [Example 102, N-(4-((7-(3-(1,1-Dioxidothiomorpholino)propoxy)-6-methoxyquinolin-4-yl)oxy)-3-fluorophenyl)-5-(4-fluorophenyl)-6-oxo-2,3,5,6-tetrahydrofuro[3,2-c]pyridine-7-carboxamide] | 23.4% | 29.7% |
